Source: patent US20210236528A1, “COMPOSITION COMPRISING ISOMERS OF INOSITOL AND ITS USE” (SOCIETE DES PRODUITS NESTLE S.A., priority 2019, published 2021)

Columns and labels:
[1] = Urinary inositol isomers excretion by glucose tolerance status (UHPLC-MSMS), withdrawn women from study 2; type: in vivo, human; details: endogenous, spot urine
Experimental: (§1) Only withdrawn women from this study 2 were included in this sub-study. Women were from UK (N=46), NZ (N=89), SG (N=117). All the data (anthropometric and biochemical parameters) were collected and measured. Plasma and urine inositol isomers were measured using a new validated UHPLC-MSMS method. Study 2 was approved by different Institutional Review Boards and the study design published (Godfrey K M et al, Trials. 2017 Mar. 20; 18(1):131.). Subjects were classified as normoglycemic (NGT), impaired glucose tolerance (IGT), and type 2 diabetic mellitus (T2DM) based upon the results of fasting glucose and the oral glucose tolerance test (OGTT). Subjects with 2-hours glucose were levels <7.8 mmol/L were considered as normal glucose tolerant (NGT), while those with 2-hour glucose between 7.8-11.1 mmol/L were deemed as having impaired glucose tolerance (IGT). Individuals with fasting plasma glucose (IFG) level 5.6 mmol/L) were classified as having impaired fasting glucose. Both IFG and IGT subjects were grouped together. Subjects with 2-hours glucose >11.1 mmol/L were considered as having type 2 diabetic mellitus (T2DM). NGT group was further divided into 2 sub-groups named NGT with a “favorable” metabolic risk profile (abbreviated NGT_fav) and NGT with an “unfavorable” metabolic risk profile (abbreviated NGT_Unfav) to take into account the hyperinsulinemia affecting subjects in the NGT group. Inclusion criteria for NGT subjects with a favorable risk profile (NGT_fav) were the following ones: BMI<25 for Caucasian and <23 for Asian subjects; waist <80 cm; waist/hip ratio […]; HOMA2-IR<1.21. IGT/IFG and T2DM subjects were also grouped together into a dysglycemic group. In total, […] were reported: NGT_all; NGT_fav; NGT_unfav; IGT/IFG and; T2DM.
(§2) Blood samples were collected into EDTA-containing tubes and spot urine samples were collected and frozen at −80° C. until analysis. For inositol isomers determination, analysis was performed on an Accela UHPLC (Thermo Fisher Scientific Inc., Waltham, Mass., USA) coupled to a TSQ Vantage triple quadrupole (Thermo Fisher Scientific Inc., Waltham, Mass., USA) equipped with a heated electrospray ionization (HESI) source in negative mode. Chromatographic separation was achieved using gradient elution on an UHPLC Acquity BEH Amide (1.7 μm, 2.1 mm×150 mm) column and guard column (Vanguard BEH Amide 1.7 μm, 2.1 mm×10 mm; Waters Corporation, Milford, Mass., USA) at 30° C. at a flow rate of 400 μL/min. Mobile phase consisted of 90% acetonitrile-NH4OH 0.04% (eluent A) and 50% acetonitrile-NH4OH 0.04% (eluent B). Column temperature was kept at 30° C. The injection volumes were 3 μL and 5 μL for urine and plasma respectively. Plasma samples were thawed and briefly vortexed before transferring 100 μL of the sample into a 1.5 mL microtube. 50 μL of [2H6]-myo-inositol, then 500 μL of ACN containing 1% of formic acid were added for protein precipitation. The tubes were vortexed for 1 min and centrifuged at 10,000×g for 3 min. Supernatants were transferred into an SPE Ostro 96 well plate for phospholipid removal. Positive pressure (about 8 psi) was applied for elution and the filtrates were then evaporate to dryness in a vacuum centrifuge (45° C., 5 mbar, 6 h). Dry residues were dissolved in 400 μL of water and transferred into a 0.45 μm centrifugal filter containing 175 mg of mixed bed ion exchange resin Amberlite MB-3. Tubes were spun at 3000×g for 2 min then the filtrates were evaporated to dryness in vacuum centrifuge at 45° C., 5 mbar for 2 h. Finally, residues were reconstituted in vials with 80 μL of ACN/water (60/40) and injected for analysis.
Urine samples were thawed and briefly vortexed before transferring 150 μL of sample into a 1.5-mL microtube. 100 μL of [2H6]-myo-inositol was added and the mixture was transferred into a 0.45 μm centrifugal filter containing 175 mg of mixed bed ion exchange resin Amberlite MB-3. […]

[2] = Plasma inositol isomers levels by glucose tolerance status (UHPLC-MSMS), withdrawn women from study 2; type: in vivo, human; details: endogenous level; for Plasma inositol isomers levels, Mean: no administration; for plasma concentration in subjects with impaired glucose tolerance or type II diabetes in comparison to normal glucose tolerance / average plasma concentration in Asian subjects in comparison to Caucasian subjects: result in words; for average plasma concentration in Asian subjects in comparison to Caucasian subjects: subjects not having prediabetes or type II diabetes
Experimental: as §1, §2
Statistical analysis was performed using R software (version 3.2.3). Mean and standard deviation were calculated. The statistical model used as covariate the glucose tolerance status, the ethnicity, the menstrual cycle, the age of the subjects and the BMI. For some statistical analysis some raw data were log transformed in view of their distribution. […]

## OC1C(O)C(O)C(O)C(O)C1O (stereo not shown) [Chiro-inositol]
[1]; IGT/IFG group
  Urinary inositol isomers excretion, Mean: 0.20 μmol/mmol of creatinine
[1]; NGT (all) group
  Urinary inositol isomers excretion, Mean: 0.24 μmol/mmol of creatinine
[1]; NGT_Fav group
  Urinary inositol isomers excretion, Mean: 0.26 μmol/mmol of creatinine
[1]; NGT_Unfav group
  Urinary inositol isomers excretion, Mean: 0.22 μmol/mmol of creatinine
[1]; T2DM group
  Urinary inositol isomers excretion, Mean: 0.42 μmol/mmol of creatinine
[2]; IGT/IFG group, N=41 women
  Plasma inositol isomers levels, Mean: 0.32 µmol/L
[2]; NGT (all) group, N=182 women
  Plasma inositol isomers levels, Mean: 0.23 µmol/L
[2]; NGT_Fav group, N=63 women
  Plasma inositol isomers levels, Mean: 0.26 µmol/L
[2]; NGT_Unfav group, N=119 women
  Plasma inositol isomers levels, Mean: 0.22 µmol/L
[2]; T2DM group, N=26 women
  Plasma inositol isomers levels, Mean: 0.22 µmol/L

## O[C@H]1[C@H](O)[C@@H](O)[C@H](O)[C@@H](O)[C@H]1O [Myo-inositol, cis-1,2,3,5-trans-4,6cyclohexanehexol]
[1]; IGT/IFG group
  Urinary inositol isomers excretion, Mean: 6.35 μmol/mmol of creatinine
[1]; NGT (all) group
  Urinary inositol isomers excretion, Mean: 9.21 μmol/mmol of creatinine
[1]; NGT_Fav group
  Urinary inositol isomers excretion, Mean: 10.86 μmol/mmol of creatinine
[1]; NGT_Unfav group
  Urinary inositol isomers excretion, Mean: 8.33 μmol/mmol of creatinine
[1]; T2DM group
  Urinary inositol isomers excretion, Mean: 17.97 μmol/mmol of creatinine
[2]; IGT/IFG group, N=41 women
  Plasma inositol isomers levels, Mean: 23.23 µmol/L
[2]; NGT (all) group, N=182 women
  Plasma inositol isomers levels, Mean: 25.91 µmol/L
[2]; NGT_Fav group, N=63 women
  Plasma inositol isomers levels, Mean: 25.44 µmol/L
[2]; NGT_Unfav group, N=119 women
  Plasma inositol isomers levels, Mean: 26.16 µmol/L
[2]; T2DM group, N=26 women
  Plasma inositol isomers levels, Mean: 24.66 µmol/L
[2]
  plasma concentration in subjects with impaired glucose tolerance or type II diabetes in comparison to normal glucose tolerance: lower
  average plasma concentration in Asian subjects in comparison to Caucasian subjects: lower

## O[C@H]1[C@H](O)[C@@H](O)[C@H](O)[C@@H](O)[C@@H]1O [Scyllo-inositol, (1r,2r,3r,4r,5r,6r)-Cyclohexane-1,2,3,4,5,6-hexol]
[1]; IGT/IFG group
  Urinary inositol isomers excretion, Mean: 3.31 μmol/mmol of creatinine
[1]; NGT (all) group
  Urinary inositol isomers excretion, Mean: 5.04 μmol/mmol of creatinine
[1]; NGT_Fav group
  Urinary inositol isomers excretion, Mean: 6.34 μmol/mmol of creatinine
[1]; NGT_Unfav group
  Urinary inositol isomers excretion, Mean: 4.34 μmol/mmol of creatinine
[1]; T2DM group
  Urinary inositol isomers excretion, Mean: 3.36 μmol/mmol of creatinine
[2]; IGT/IFG group, N=41 women
  Plasma inositol isomers levels, Mean: 0.46 µmol/L
[2]; NGT (all) group, N=182 women
  Plasma inositol isomers levels, Mean: 0.67 µmol/L
[2]; NGT_Fav group, N=63 women
  Plasma inositol isomers levels, Mean: 0.72 µmol/L
[2]; NGT_Unfav group, N=119 women
  Plasma inositol isomers levels, Mean: 0.64 µmol/L
[2]; T2DM group, N=26 women
  Plasma inositol isomers levels, Mean: 0.37 µmol/L
[2]
  plasma concentration in subjects with impaired glucose tolerance or type II diabetes in comparison to normal glucose tolerance: lower
  average plasma concentration in Asian subjects in comparison to Caucasian subjects: lower
